ChEMBL document CHEMBL1150225, “Cytotoxic cholestane glycosides from the bulbs of Ornithogalum saundersiae” (J Nat Prod, 2001)

What was measured:
Type in all cases: functional
NCI-H522 = test: Cytotoxicity against human NCI-H522 cells
ACHN = test: Cytotoxicity against human ACHN cells
SR = test: Cytotoxicity against human SR cells
SK-OV-3 = test: Cytotoxicity against human SKOV3 cells
A498 = test: Cytotoxicity against human A498 cells
HOP-92 = test: Cytotoxicity against human HOP92 cells
OVCAR-5 = test: Cytotoxicity against human OVCAR5 cells
IGROV-1 = test: Cytotoxicity against human IGROV1 cells
MCF7 = test: Cytotoxicity against human MCF7 cells
SF-268 = test: Cytotoxicity against human SF268 cells
[1] = Cytotoxicity against human MCF7/ADR cells; conditions: NCI/ADR-RES
OVCAR-8 = test: Cytotoxicity against human OVCAR8 cells
HT-29 = test: Cytotoxicity against human HT-29 cells
TK-10 = test: Cytotoxicity against human TK10 cells
SK-MEL-5 = test: Cytotoxicity against human SK-MEL-5 cells
MOLT-4 = test: Cytotoxicity against human MOLT4 cells
HCT-116 = test: Cytotoxicity against human HCT116 cells
CCRF-CEM = test: Cytotoxicity against human CCRF-CEM cells
MDA-N = test: Cytotoxicity against human MDA-N cells
MDA-MB-435 = test: Cytotoxicity against human MDA-MB-435 cells
BT-549 = test: Cytotoxicity against human BT549 cells
RXF 393 = test: Cytotoxicity against human RXF393 cells
SNB-75 = test: Cytotoxicity against human SNB75 cells
786-0 = test: Cytotoxicity against human 786-0 cells
SN12C = test: Cytotoxicity against human SN12C cells
PC-3 = test: Cytotoxicity against human PC3 cells
SK-MEL-2 = test: Cytotoxicity against human SK-MEL-2 cells
EKVX = test: Cytotoxicity against human EKVX cells
OVCAR-3 = test: Cytotoxicity against human OVCAR-3 cells
[2] = Cytotoxicity against human […] cells
[3] = read-out: pLC50 (the source's name) (converted)

SMILES: COc1ccc(C(=O)O[C@H]2[C@H](O[C@@H]3[C@@H](OC(C)=O)[C@H](O[C@H]4C[C@H]5[C@@H]6CC=C7C[C@@H](O)CC[C@]7(C)[C@H]6CC[C@]5(C)[C@@]4(O)[C@H](C)C(=O)CCC(C)C)OC[C@@H]3O)OC[C@@H](O)[C@@H]2O)cc1
- GI50 (NCI-H522): 0.363 nM
- CC50 (NCI-H522; [3]): 324 nM
- TGI (NCI-H522; read-out: pTGI (converted)): 5.37 nM
- GI50 (ACHN): 7.94 nM
- CC50 (ACHN; [3]): 7.24 µM
- TGI (ACHN; read-out: pTGI (converted)): 2190 nM
- GI50 (SR): 0.12 nM
- CC50 (SR; [3]): 6.31 µM
- TGI (SR; read-out: pTGI (converted)): 129 nM
- GI50 (SK-OV-3): 3.98 nM
- CC50 (SK-OV-3; [3]): 10 µM
- TGI (SK-OV-3; read-out: pTGI (converted)): 1200 nM
- GI50 (A498): 0.24 nM
- CC50 (A498; [3]): 141 nM
- TGI (A498; read-out: pTGI (converted)): 2.19 nM
- GI50 (HOP-92): 1.1 nM
- CC50 (HOP-92; [3]): 3.02 µM
- TGI (HOP-92; read-out: pTGI (converted)): 32.4 nM
- GI50 (OVCAR-5): 50.1 nM
- CC50 (OVCAR-5; [3]): 5.89 µM
- TGI (OVCAR-5; read-out: pTGI (converted)): 2000 nM
- GI50 (IGROV-1): 1.51 nM
- CC50 (IGROV-1; [3]): 6.92 µM
- TGI (IGROV-1; read-out: pTGI (converted)): 1910 nM
- GI50 (MCF7): 0.813 nM
- CC50 (MCF7; [3]): 3.63 µM
- TGI (MCF7; read-out: pTGI (converted)): 1200 nM
- GI50 (SF-268): 2.4 nM
- CC50 (SF-268; [3]): 7.41 µM
- TGI (SF-268; read-out: pTGI (converted)): 851 nM
- GI50 [1]: 24 nM
- CC50 [1, 3]: 6.61 µM
- TGI ([1]; read-out: pTGI (converted)): 2000 nM
- GI50 (OVCAR-8): 15.1 nM
- CC50 (OVCAR-8; [3]): 5.37 µM
- TGI (OVCAR-8; read-out: pTGI (converted)): 1580 nM
- GI50 (HT-29): 0.363 nM
- CC50 (HT-29; [3]): 3.72 µM
- TGI (HT-29; read-out: pTGI (converted)): 302 nM
- GI50 (TK-10): 77.6 nM
- CC50 (TK-10; [3]): 8.91 µM
- TGI (TK-10; read-out: pTGI (converted)): 1910 nM
- GI50 (SK-MEL-5): 0.759 nM
- CC50 (SK-MEL-5; [3]): 282 nM
- TGI (SK-MEL-5; read-out: pTGI (converted)): 43.6 nM
- GI50 (MOLT-4): 0.0977 nM
- CC50 (MOLT-4; [3]): 457 nM
- TGI (MOLT-4; read-out: pTGI (converted)): 11 nM
- GI50 (HCT-116): 0.38 nM
- CC50 (HCT-116; [3]): 1290 nM
- TGI (HCT-116; read-out: pTGI (converted)): 191 nM
- GI50 (CCRF-CEM): 0.1 nM
- CC50 (CCRF-CEM; [3]): 1200 nM
- TGI (CCRF-CEM; read-out: pTGI (converted)): 7.08 nM
- GI50 (MDA-N): 0.776 nM
- CC50 (MDA-N; [3]): 490 nM
- TGI (MDA-N; read-out: pTGI (converted)): 8.91 nM
- GI50 (MDA-MB-435): 0.575 nM
- CC50 (MDA-MB-435; [3]): 407 nM
- TGI (MDA-MB-435; read-out: pTGI (converted)): 8.91 nM
- GI50 (BT-549): 1.82 nM
- CC50 (BT-549; [3]): 4.57 µM
- TGI (BT-549; read-out: pTGI (converted)): 1700 nM
- GI50 (RXF 393): 0.0708 nM
- CC50 (RXF 393; [3]): 407 nM
- TGI (RXF 393; read-out: pTGI (converted)): 18.2 nM
- GI50 (SNB-75): 0.0417 nM
- CC50 (SNB-75; [3]): 3.02 µM
- TGI (SNB-75; read-out: pTGI (converted)): 3.24 nM
- GI50 (786-0): 0.0617 nM
- CC50 (786-0; [3]): 3.47 µM
- TGI (786-0; read-out: pTGI (converted)): 1200 nM
- GI50 (SN12C): 1290 nM
- CC50 (SN12C; [3]): 6.76 µM
- TGI (SN12C; read-out: pTGI (converted)): 2880 nM
- GI50 (PC-3): 0.209 nM
- CC50 (PC-3; [3]): 389 nM
- TGI (PC-3; read-out: pTGI (converted)): 1.58 nM
- GI50 (SK-MEL-2): 0.347 nM
- CC50 (SK-MEL-2; [3]): 5.5 µM
- TGI (SK-MEL-2; read-out: pTGI (converted)): 17 nM
- GI50 (EKVX): 0.182 nM
- CC50 (EKVX; [3]): 6.61 µM
- TGI (EKVX; read-out: pTGI (converted)): 550 nM
- GI50 (OVCAR-3): 9.55 nM
- CC50 (OVCAR-3; [3]): 4.68 µM
- TGI (OVCAR-3; read-out: pTGI (converted)): 2000 nM
- GI50 [2]: 0.038 nM
